Key:
[1] = test system: HaCaT cells; test: In vitro cytotoxic activity, inhibition of cell proliferation, ATP bioluminescence (ViaLight); type: cell-based, human
Description: (§1) This compound (abbreviated ‘MTX-Pen’ in the tables below) was evaluated for its ability to inhibit cell proliferation of normal (immortalised) human cells (HaCaT cells, Tables 1 & 2) and a human colorectal cancer cell line (HT29, Table 3).
(§2) Assay procedure—Cells were seeded into 96-well plates at 2,500 cells/well in DMEM with 10% FCS and antibiotics. After overnight incubation, test compound dilutions in cell medium were prepared and were added to the cells. Samples were taken 1, 2, 3, and 4 days after compound addition. Nucleotide Releasing Reagent (LumiTech ViaLight kit) was added in order to lyse the cells and release ATP. After incubation at room temperature (5 min), the mixtures were transferred to opaque 96-well plates and stored at −20° C. until analysis. After loading plates into a luminometer (Lucy 1, Labtech International), ATP Monitoring Reagent (20 μL/well, LumiTech ViaLight kit) was added to each well successively and light intensity was measured immediately. Six readings were taken per sample. Each assay point was established using six replicates and appropriate controls. […] Statistically significant results in the tables below are printed in bold face.
(§3) This compound (abbreviated ‘MTX-Pen’ in tables below) was evaluated for its ability to inhibit cell proliferation of normal (immortalised) human cells (HaCaT cells, Tables 1 & 2) and a human colorectal cancer cell line (HT29, Table 3).
(§4) Assay procedure—Cells were seeded into 96-well plates at 2,500 cells/well in DMEM with 10% foetal calf serum and antibiotics. After overnight incubation, test compound dilutions in cell medium were prepared and were added to the cells. Samples were taken 1, 2, 3, and 4 days after compound addition. Nucleotide Releasing Reagent (LumiTech ViaLight kit) was added in order to lyse the cells and release ATP. After incubation at room temperature (5 min), the mixtures were transferred to opaque 96-well plates and stored at −20° C. until analysis. After loading plates into a luminometer (Lucy 1, Labtech International), ATP Monitoring Reagent ([…], LumiTech ViaLight kit) was added to each well successively and light intensity was measured immediately. Six readings were taken per sample. Each assay point was established using six replicates and appropriate controls.

[2] = test system: HT29; test: as above; type: cell-based, human
Description: as §1, §2, §3, §4

[3] = Table 1, HaCaT, Dose 0.2 μM, Day 1
[4] = Table 1, HaCaT, Dose 0.2 μM, Day 2
[5] = Table 1, HaCaT, Dose 0.2 μM, Day 3
[6] = Table 1, HaCaT, Dose 0.2 μM, Day 4
[7] = Table 1, HaCaT, Dose 0.5 μM, Day 1
[8] = Table 1, HaCaT, Dose 0.5 μM, Day 2
[9] = Table 1, HaCaT, Dose 0.5 μM, Day 3
[10] = Table 1, HaCaT, Dose 0.5 μM, Day 4
[11] = Table 1, HaCaT, Dose 1.5 μM, Day 1
[12] = Table 1, HaCaT, Dose 1.5 μM, Day 2
[13] = Table 1, HaCaT, Dose 1.5 μM, Day 3
[14] = Table 1, HaCaT, Dose 1.5 μM, Day 4
[15] = Table 1, HaCaT, Dose 4.4 μM, Day 1
[16] = Table 1, HaCaT, Dose 4.4 μM, Day 2
[17] = Table 1, HaCaT, Dose 4.4 μM, Day 3
[18] = Table 1, HaCaT, Dose 4.4 μM, Day 4
[19] = Table 1, HaCaT, Dose 13.3 μM, Day 1
[20] = Table 1, HaCaT, Dose 13.3 μM, Day 2
[21] = Table 1, HaCaT, Dose 13.3 μM, Day 3
[22] = Table 1, HaCaT, Dose 13.3 μM, Day 4
[23] = Table 1, HaCaT, Dose 40.0 μM, Day 1
[24] = Table 1, HaCaT, Dose 40.0 μM, Day 2
[25] = Table 1, HaCaT, Dose 40.0 μM, Day 3
[26] = Table 1, HaCaT, Dose 40.0 μM, Day 4

For “H-Ala-Arg-Gln-Ile-Lys-Ile-Trp-Phe-Gln-Asn-Arg-Arg-Met-Lys-Trp-Lys-Lys-OH (H-ARQIKIWFQNRRMKWKK-OH) [Pen, the free vector]”, the “% Cell Death” value [1, 3] was 26%, the “% Cell Death” value [1, 4] was 0% and the “% Cell Death” value [1, 5] was −3%. The “% Cell Death” value [1, 6] was 21%, the “% Cell Death” value [1, 7] was 6% and the “% Cell Death” value [1, 8] was −6%. The “% Cell Death” value [1, 9] was −29%, the “% Cell Death” value [1, 10] was −26% and the “% Cell Death” value [1, 11] was 16%. The “% Cell Death” value [1, 12] was −31%, the “% Cell Death” value [1, 13] was 2% and the “% Cell Death” value [1, 14] was −14%. For the same substance, the “% Cell Death” value [1, 15] was 8%, the “% Cell Death” value [1, 16] was −4% and the “% Cell Death” value [1, 17] was −1%. For the same substance, the “% Cell Death” value [1, 18] was 10%, the “% Cell Death” value [1, 19] was 18% and the “% Cell Death” value [1, 20] was 0%. For the same substance, the “% Cell Death” value [1, 21] was −17%, the “% Cell Death” value [1, 22] was −6% and the “% Cell Death” value [1, 23] was 16%. For the same substance, the “% Cell Death” value [1, 24] was −22%, the “% Cell Death” value [1, 25] was 5% and the “% Cell Death” value [1, 26] was 12%.
In the case of “{[4[N-(2,4-Diamino-6-pteridinyl-methyl)-N-methylamino]benzoyl]-Glu-Gly-βAla}4-Lys2-Lys-βAla-Arg-Gln-Ile-Lys-Ile-Trp-Phe-Gln-Asn-Arg-Arg-Met-Lys-Trp-Lys-Lys-OH [MTX-Pen]”, the “% Cell Death” value [1, 3] is reported as 14%, the “% Cell Death” value [1, 4] is reported as 21% and the “% Cell Death” value [1, 5] is reported as 20%. For the same substance, the “% Cell Death” value [1, 6] was 51%, the “% Cell Death” value [1, 7] was −19% and the “% Cell Death” value [1, 8] was 2%. The “% Cell Death” value [1, 9] was 29%, the “% Cell Death” value [1, 10] was 49% and the “% Cell Death” value [1, 11] was −24%. For the same substance, the “% Cell Death” value [1, 12] was 82%, the “% Cell Death” value [1, 13] was 82% and the “% Cell Death” value [1, 14] was 88%. For the same substance, the “% Cell Death” value [1, 15] was −8%, the “% Cell Death” value [1, 16] was 45% and the “% Cell Death” value [1, 17] was 95%. For the same substance, the “% Cell Death” value [1, 18] was 98%, the “% Cell Death” value [1, 19] was −42% and the “% Cell Death” value [1, 20] was 63%. The “% Cell Death” value [1, 21] was 97%, the “% Cell Death” value [1, 22] was 98% and the “% Cell Death” value [1, 23] was 29%. For the same substance, the “% Cell Death” value [1, 24] was 82%, the “% Cell Death” value [1, 25] was 97% and the “% Cell Death” value [1, 26] was 98%. For the same substance, the “% Cell Death” value ([1]; Table 2, HaCaT, Dose 0.5 μM, Day 1) was 13%, the “% Cell Death” value ([1]; Table 2, HaCaT, Dose 0.5 μM, Day 2) was 24% and the “% Cell Death” value ([1]; Table 2, HaCaT, Dose 0.5 μM, Day 3) was −27%. The “% Cell Death” value ([1]; Table 2, HaCaT, Dose 0.5 μM, Day 4) was 2%, the “% Cell Death” value ([1]; Table 2, HaCaT, Dose 1.5 μM, Day 1) was 19% and the “% Cell Death” value ([1]; Table 2, HaCaT, Dose 1.5 μM, Day 2) was 12%. For the same substance, the “% Cell Death” value ([1]; Table 2, HaCaT, Dose 1.5 μM, Day 3) was −16%, the “% Cell Death” value ([1]; Table 2, HaCaT, Dose 1.5 μM, Day 4) was 17% and the “% Cell Death” value ([1]; Table 2, HaCaT, Dose 4.4 μM, Day 1) was 15%. The “% Cell Death” value ([1]; Table 2, HaCaT, Dose 4.4 μM, Day 2) was 52%, the “% Cell Death” value ([1]; Table 2, HaCaT, Dose 4.4 μM, Day 3) was 95% and the “% Cell Death” value ([1]; Table 2, HaCaT, Dose 4.4 μM, Day 4) was 88%. The “% Cell Death” value ([1]; Table 2, HaCaT, Dose 13.3 μM, Day 1) was 27%, the “% Cell Death” value ([1]; Table 2, HaCaT, Dose 13.3 μM, Day 2) was 87% and the “% Cell Death” value ([1]; Table 2, HaCaT, Dose 13.3 μM, Day 3) was 95%. For the same substance, the “% Cell Death” value ([1]; Table 2, HaCaT, Dose 13.3 μM, Day 4) was 94%, the “% Cell Death” value ([1]; Table 2, HaCaT, Dose 40.0 μM, Day 1) was 42% and the “% Cell Death” value ([1]; Table 2, HaCaT, Dose 40.0 μM, Day 2) was 88%. For the same substance, the “% Cell Death” value ([1]; Table 2, HaCaT, Dose 40.0 μM, Day 3) was 95%, the “% Cell Death” value ([1]; Table 2, HaCaT, Dose 40.0 μM, Day 4) was 94% and the “% Cell Death” value ([2]; Table 3, HT 29, Dose 0.5 μM, Day 1) was 14%. The “% Cell Death” value ([2]; Table 3, HT 29, Dose 0.5 μM, Day 2) was 8%, the “% Cell Death” value ([2]; Table 3, HT 29, Dose 0.5 μM, Day 3) was 17% and the “% Cell Death” value ([2]; Table 3, HT 29, Dose 0.5 μM, Day 4) was 16%. The “% Cell Death” value ([2]; Table 3, HT 29, Dose 1.5 μM, Day 1) was 16%, the “% Cell Death” value ([2]; Table 3, HT 29, Dose 1.5 μM, Day 2) was 9% and the “% Cell Death” value ([2]; Table 3, HT 29, Dose 1.5 μM, Day 3) was 15%. The “% Cell Death” value ([2]; Table 3, HT 29, Dose 1.5 μM, Day 4) was 45%, the “% Cell Death” value ([2]; Table 3, HT 29, Dose 4.4 μM, Day 1) was 10% and the “% Cell Death” value ([2]; Table 3, HT 29, Dose 4.4 μM, Day 2) was 6%. The “% Cell Death” value ([2]; Table 3, HT 29, Dose 4.4 μM, Day 3) was 46%, the “% Cell Death” value ([2]; Table 3, HT 29, Dose 4.4 μM, Day 4) was 77% and the “% Cell Death” value ([2]; Table 3, HT 29, Dose 13.3 μM, Day 1) was 3%. For the same substance, the “% Cell Death” value ([2]; Table 3, HT 29, Dose 13.3 μM, Day 2) was 45%, the “% Cell Death” value ([2]; Table 3, HT 29, Dose 13.3 μM, Day 3) was 88% and the “% Cell Death” value ([2]; Table 3, HT 29, Dose 13.3 μM, Day 4) was 96%. The “% Cell Death” value ([2]; Table 3, HT 29, Dose 40.0 μM, Day 1) was 31%, the “% Cell Death” value ([2]; Table 3, HT 29, Dose 40.0 μM, Day 2) was 79% and the “% Cell Death” value ([2]; Table 3, HT 29, Dose 40.0 μM, Day 3) was 96%. The “% Cell Death” value ([2]; Table 3, HT 29, Dose 40.0 μM, Day 4) was 98%.

From US6992169B2, “Carrier based drug delivery system” (Cyclacel Limited, priority 1998, dated 2006)
